Measurements reported in patent US20030027835A1 (priority 1999, published 2003).
Where a name gives a salt, the structure may show the parent alone.

Columns and labels:
[1] = tested on: rabbit corneal reflex; assay: corneal reflex testing in rabbits (local anesthetic effect); format: in vivo
Text: FIG. 4: Local anesthetic effect of TMB (A) and lidocaine (B) as determined in the rabbit corneal reflex. The values represent the median of percentage of inhibition of corneal reflex calculated for each set of 10 stimulations. The x axis represents time (in minutes) following instillations.*P<0.05; **P<0.01 compared with the control group treated with the vehicle (Mann-Whitney U test).
White New-Zealand male rabbits (CEGAV, Les Hauts Noës, Saint Mars d'Egrenne, France) weighing 1.9-2.7 kg were used. Animals were housed individually in cages placed in an air-conditioned (17-21° C.) animal house kept between 45% and 65% relative humidity and with an artificial day/night cycle (12 h-12 h) with light on at 7.30 am.
Test substances are administered as solutions in sterile water (Baxter, Maurepas, France). The concentrations of test substances are expressed as percentage (weight/volume) of active compound (base form). Each test substance at each concentration is tested on the two eyes of 5 animals (i.e. 10 measurements per substance and per concentration). On the day of the study, animals are placed in restraint cages in a quiet room. Twenty to 30 minutes later, a first measurement of the corneal sensitivity is performed. Any animal presenting a partial or complete corneal insensitivity or any ocular lesion before administration is excluded from the study. Immediately after the first measurement, 2×50 μl of test substances or their vehicle are applied to the cornea. The two instillations were undertaken on each eye at a one-minute interval. Corneal sensitivity is subsequently measured at 5, 10, 20, 30, 40, 50 and 60 minutes following the instillations, and then at 2, 3 and 4 hours after the instillations. Corneal sensitivity is measured by touching gently the center of the cornea with a loop-shape nylon yarn (0.3 mm diameter). For each measurement, this operation is repeated 10 times at regular 2 second intervals. The number of stimulations producing a corneal reflex is noted for each set and for each eye.
Results are expressed as percentage of inhibition of the corneal reflex calculated for each set of 10 stimulations:
% inhibition of corneal reflex=10-(number of stimulations inducing a corneal reflex)×10
For each experimental group, median values are determined. The effects of test compounds are compared with those of the vehicle using a Mann-Withney non-parametric U test at each time of measurement. Areas under curves are calculated over the first 60-minute period following instillation for each animal and each concentration by the trapezoidal method of Bourget et al., 1993. The relative potency of TMB) is compared to that of lidocaine hydrochloride from respective mean areas under curves using a covariance analysis.

[2] = tested on: PGE2-induced hyperalgesia; assay: PGE2-induced hyperalgesia in the rat (Randall and Selitto test)
[3] = tested on: sodium currents in rat dorsal root ganglia (DRG) neurons; format: cell-based

SMILES: CCN(CC)CC(=O)Nc1c(C)cccc1C [lidocaine, lidocaine hydrochloride]
- duration of complete local anesthetic effect ([1]; 6% concentration): 25 min
- inhibition of corneal reflex ([1]; 6% concentration, 60 min after instillation): no more inhibition
- local anesthetic activity ([1]; up to the concentration of 0.3%): inactive

SMILES: CN1CC[C@]23c4c5ccc(O)c4O[C@H]2[C@@H](O)C=C[C@H]3[C@H]1C5 [Morphine, morphine]
- % of analgesic activity ([2]; Morphine 0.3 mg/kg s.c., 30 min before test (T1 of FIG. 5)): 22%
- % of analgesic activity ([2]; Morphine 3 mg/kg s.c. (M3 of FIG. 6)): 64%

SMILES: CCC(COC(=O)c1cc(OC)c(OC)c(OC)c1)(c1ccccc1)N(C)C.O=C(O)/C=C\C(=O)O (racemic) [Trimebutine, 2-dimethylamino-2-phenylbutyl 3,4,5-trimethoxybenzoate hydrogen maleate]
- blocking rate kon [3]: 35-40 10^−3 s^−1 μM^−1
- duration of local anesthetic effect ([1]; 0.1% concentration): 20 min
- potency relative to lidocaine ([1]; comparison of areas under the curve over first 60 min): 17 fold
- duration of complete local anesthesia ([1]; instillation of 0.3% or 1%): more than 60 min
- concentration giving first significant local anesthetic effects ([1]; rabbit cornea, instillation): 0.1%
- % of analgesic activity ([2]; Trimebutine 100 mg/kg s.c. (T2 of FIG. 5)): 27%
